From the NIST ThermoML archive (doi:10.1021/acs.jced.8b01004)
± gives the expanded uncertainty stated by the source.

Test: xn = mol fraction of the nth substance listed
Settings: 100 kPa, Liquid; for mass density: Vibrating tube method; for viscosity: Falling or rolling sphere viscometry

OC1CCCC1 [cyclopentanol] + CC1CCCCC1
mass density (318.15 K, x2 = 0): 926.75 ± 1.5 kg/m3 | mass density (318.15 K, x2 = 0.0995): 903.41 ± 1.4 kg/m3 | mass density (318.15 K, x2 = 0.2005): 881.17 ± 1.4 kg/m3 | mass density (318.15 K, x2 = 0.2971): 860.88 ± 1.4 kg/m3 | mass density (318.15 K, x2 = 0.4001): 840.59 ± 1.4 kg/m3 | mass density (318.15 K, x2 = 0.5014): 821.99 ± 1.3 kg/m3 | mass density (318.15 K, x2 = 0.5994): 805.06 ± 1.3 kg/m3 | mass density (318.15 K, x2 = 0.6828): 791.51 ± 1.3 kg/m3 | mass density (318.15 K, x2 = 0.7949): 774.57 ± 1.2 kg/m3 | mass density (318.15 K, x2 = 0.8975): 760.23 ± 1.2 kg/m3 | viscosity (323.15 K, x2 = 0): 4.441 ± 0.095 mPa·s | viscosity (323.15 K, x2 = 0.0995): 3.037 ± 0.065 mPa·s | viscosity (323.15 K, x2 = 0.2005): 2.081 ± 0.044 mPa·s | viscosity (323.15 K, x2 = 0.2971): 1.635 ± 0.035 mPa·s | viscosity (323.15 K, x2 = 0.4001): 1.241 ± 0.027 mPa·s | viscosity (323.15 K, x2 = 0.5014): 1.004 ± 0.022 mPa·s | viscosity (323.15 K, x2 = 0.5994): 0.842 ± 0.018 mPa·s | viscosity (323.15 K, x2 = 0.6828): 0.74 ± 0.016 mPa·s | viscosity (323.15 K, x2 = 0.7949): 0.636 ± 0.014 mPa·s | viscosity (323.15 K, x2 = 0.8975): 0.566 ± 0.012 mPa·s | mass density (323.15 K, x2 = 0): 922.53 ± 1.5 kg/m3 | mass density (323.15 K, x2 = 0.0995): 899.09 ± 1.4 kg/m3 | mass density (323.15 K, x2 = 0.2005): 876.78 ± 1.4 kg/m3 | mass density (323.15 K, x2 = 0.2971): 856.11 ± 1.4 kg/m3 | mass density (323.15 K, x2 = 0.4001): 836.11 ± 1.4 kg/m3 | mass density (323.15 K, x2 = 0.5014): 817.49 ± 1.3 kg/m3 | mass density (323.15 K, x2 = 0.5994): 800.54 ± 1.3 kg/m3 | mass density (323.15 K, x2 = 0.6828): 786.98 ± 1.3 kg/m3 | mass density (323.15 K, x2 = 0.7949): 770.03 ± 1.2 kg/m3 | mass density (323.15 K, x2 = 0.8975): 755.7 ± 1.2 kg/m3 | viscosity (328.15 K, x2 = 0): 3.83 ± 0.082 mPa·s | viscosity (328.15 K, x2 = 0.0995): 2.674 ± 0.057 mPa·s | viscosity (328.15 K, x2 = 0.2005): 1.843 ± 0.039 mPa·s | viscosity (328.15 K, x2 = 0.2971): 1.472 ± 0.031 mPa·s | viscosity (328.15 K, x2 = 0.4001): 1.13 ± 0.024 mPa·s | viscosity (328.15 K, x2 = 0.5014): 0.924 ± 0.02 mPa·s | viscosity (328.15 K, x2 = 0.5994): 0.782 ± 0.017 mPa·s | viscosity (328.15 K, x2 = 0.6828): 0.692 ± 0.015 mPa·s | viscosity (328.15 K, x2 = 0.7949): 0.599 ± 0.013 mPa·s | viscosity (328.15 K, x2 = 0.8975): 0.537 ± 0.012 mPa·s | mass density (328.15 K, x2 = 0): 918.24 ± 1.5 kg/m3 | mass density (328.15 K, x2 = 0.0995): 894.72 ± 1.4 kg/m3 | mass density (328.15 K, x2 = 0.2005): 872.33 ± 1.4 kg/m3 | mass density (328.15 K, x2 = 0.2971): 851.95 ± 1.4 kg/m3 | mass density (328.15 K, x2 = 0.4001): 831.58 ± 1.3 kg/m3 | mass density (328.15 K, x2 = 0.5014): 812.94 ± 1.3 kg/m3 | mass density (328.15 K, x2 = 0.5994): 795.97 ± 1.3 kg/m3 | mass density (328.15 K, x2 = 0.6828): 782.41 ± 1.3 kg/m3 | mass density (328.15 K, x2 = 0.7949): 765.45 ± 1.2 kg/m3 | mass density (328.15 K, x2 = 0.8975): 751.14 ± 1.2 kg/m3 | viscosity (333.15 K, x2 = 0): 3.312 ± 0.07 mPa·s | viscosity (333.15 K, x2 = 0.0995): 2.366 ± 0.05 mPa·s | viscosity (333.15 K, x2 = 0.2005): 1.642 ± 0.035 mPa·s | viscosity (333.15 K, x2 = 0.2971): 1.329 ± 0.028 mPa·s | viscosity (333.15 K, x2 = 0.4001): 1.033 ± 0.022 mPa·s | viscosity (333.15 K, x2 = 0.5014): 0.853 ± 0.018 mPa·s | viscosity (333.15 K, x2 = 0.5994): 0.731 ± 0.016 mPa·s | viscosity (333.15 K, x2 = 0.6828): 0.65 ± 0.014 mPa·s | viscosity (333.15 K, x2 = 0.7949): 0.566 ± 0.012 mPa·s | viscosity (333.15 K, x2 = 0.8975): 0.51 ± 0.011 mPa·s | mass density (333.15 K, x2 = 0): 913.89 ± 1.5 kg/m3 | mass density (333.15 K, x2 = 0.0995): 890.28 ± 1.4 kg/m3 | mass density (333.15 K, x2 = 0.2005): 867.83 ± 1.4 kg/m3 | mass density (333.15 K, x2 = 0.2971): 847.4 ± 1.4 kg/m3 | mass density (333.15 K, x2 = 0.4001): 827 ± 1.3 kg/m3 | mass density (333.15 K, x2 = 0.5014): 808.34 ± 1.3 kg/m3 | mass density (333.15 K, x2 = 0.5994): 791.36 ± 1.3 kg/m3 | mass density (333.15 K, x2 = 0.6828): 777.79 ± 1.3 kg/m3 | mass density (333.15 K, x2 = 0.7949): 760.84 ± 1.2 kg/m3 | mass density (333.15 K, x2 = 0.8975): 746.55 ± 1.2 kg/m3 | viscosity (338.15 K, x2 = 0): 2.886 ± 0.061 mPa·s | viscosity (338.15 K, x2 = 0.0995): 2.109 ± 0.045 mPa·s | viscosity (338.15 K, x2 = 0.2005): 1.471 ± 0.031 mPa·s | viscosity (338.15 K, x2 = 0.2971): 1.205 ± 0.026 mPa·s | viscosity (338.15 K, x2 = 0.4001): 0.948 ± 0.02 mPa·s | viscosity (338.15 K, x2 = 0.5014): 0.79 ± 0.017 mPa·s | viscosity (338.15 K, x2 = 0.5994): 0.683 ± 0.015 mPa·s | viscosity (338.15 K, x2 = 0.6828): 0.611 ± 0.013 mPa·s | viscosity (338.15 K, x2 = 0.7949): 0.536 ± 0.012 mPa·s | viscosity (338.15 K, x2 = 0.8975): 0.486 ± 0.011 mPa·s | mass density (338.15 K, x2 = 0): 909.48 ± 1.5 kg/m3 | mass density (338.15 K, x2 = 0.0995): 885.78 ± 1.4 kg/m3 | mass density (338.15 K, x2 = 0.2005): 863.28 ± 1.4 kg/m3 | mass density (338.15 K, x2 = 0.2971): 842.8 ± 1.4 kg/m3 | mass density (338.15 K, x2 = 0.4001): 822.37 ± 1.3 kg/m3 | mass density (338.15 K, x2 = 0.5014): 803.69 ± 1.3 kg/m3 | mass density (338.15 K, x2 = 0.5994): 786.71 ± 1.3 kg/m3 | mass density (338.15 K, x2 = 0.6828): 773.13 ± 1.2 kg/m3 | mass density (338.15 K, x2 = 0.7949): 756.2 ± 1.2 kg/m3 | mass density (338.15 K, x2 = 0.8975): 741.93 ± 1.2 kg/m3 | viscosity (343.15 K, x2 = 0): 2.53 ± 0.054 mPa·s | viscosity (343.15 K, x2 = 0.0995): 1.879 ± 0.04 mPa·s | viscosity (343.15 K, x2 = 0.2005): 1.326 ± 0.029 mPa·s | viscosity (343.15 K, x2 = 0.2971): 1.108 ± 0.024 mPa·s | viscosity (343.15 K, x2 = 0.4001): 0.873 ± 0.019 mPa·s | viscosity (343.15 K, x2 = 0.5014): 0.734 ± 0.016 mPa·s | viscosity (343.15 K, x2 = 0.5994): 0.641 ± 0.014 mPa·s | viscosity (343.15 K, x2 = 0.6828): 0.577 ± 0.012 mPa·s | viscosity (343.15 K, x2 = 0.7949): 0.517 ± 0.011 mPa·s | viscosity (343.15 K, x2 = 0.8975): 0.464 ± 0.01 mPa·s | mass density (343.15 K, x2 = 0): 904.99 ± 1.4 kg/m3 | mass density (343.15 K, x2 = 0.0995): 881.21 ± 1.4 kg/m3 | mass density (343.15 K, x2 = 0.2005): 858.67 ± 1.4 kg/m3 | mass density (343.15 K, x2 = 0.2971): 838.13 ± 1.4 kg/m3 | mass density (343.15 K, x2 = 0.4001): 817.69 ± 1.3 kg/m3 | mass density (343.15 K, x2 = 0.5014): 799 ± 1.3 kg/m3 | mass density (343.15 K, x2 = 0.5994): 782.01 ± 1.3 kg/m3 | mass density (343.15 K, x2 = 0.6828): 768.43 ± 1.2 kg/m3 | mass density (343.15 K, x2 = 0.7949): 751.51 ± 1.2 kg/m3 | mass density (343.15 K, x2 = 0.8975): 737.27 ± 1.2 kg/m3
